The values below come from patent publication US20100029682A1, “NOVEL CHROMENE AND THIOCHROMENE CARBOXAMIDE DERIVATIVES, METHODS FOR PREPARING SAME AND THERAPEUTIC APPLICATIONS OF SAME” (priority 2006, published 2010).

SMILES strings stand for the structures. Where a name gives a salt, the structure may show the parent alone.

The melting point is the temperature, or range, at which the solid turns liquid.

On to `O=C(NCCCCN1CCN(c2ccccc2F)CC1)C1=Cc2ccccc2OC1` (as salt: HCl) [Example 3, 2-H-Chromene-3-carboxylic acid {4-[4-(2-fluorophenyl)-piperazin-1-yl]-butyl}-amide], for which the melting point was found to be 231 °C.

`O=C(NCCCCN1CCN(c2ccccc2)CC1)C1=Cc2ccccc2OC1` (as salt: HCl) [Example 4, 2H-Chromene-3-carboxylic acid {4-(4-phenylpiperazin-1-yl)-butyl}-amide] came in with a melting point of 239 °C.

On to `O=C(NCCCCN1CCN(c2ccc(Cl)cc2)CC1)C1=Cc2ccccc2OC1` (as salt: HCl) [Example 5, 2H-Chromene-3-carboxylic acid {4-[4-(4-chlorophenyl)-piperazin-1-yl]-butyl}-amide], for which the melting point was determined as 236 °C.

On to `O=C(NCCCCN1CCN(c2cccc(Cl)c2)CC1)C1=Cc2ccccc2OC1` (as salt: HCl) [Example 6, 2H-Chromene-3-carboxylic acid {4-[4-(3 chlorophenyl)-piperazin-1-yl]-butyl}-amide], for which the melting point was 216 °C.

With `O=C(NCCCCN1CCN(c2ccccc2Cl)CC1)C1=Cc2ccccc2OC1` (as salt: HCl) [Example 7, 2H-Chromene-3 carboxylic acid {4-[4-(2-chlorophenyl)-piperazin-1-yl]-butyl}-amide], the melting point stood at 201 °C.

Take `O=C(NCCCCN1CCN(c2ccc(F)cc2)CC1)C1=Cc2ccccc2OC1` (as salt: HCl) [Example 8, 2H Chromene-3-carboxylic acid {4-[4-(4 fluorophenyl)-piperazin-1-yl]-butyl}-amide]: the melting point is 243 °C.

In turn, `Cc1ccccc1N1CCN(CCCCNC(=O)C2=Cc3ccccc3OC2)CC1` (as salt: HCl) [Example 9, 2H Chromene-3-carboxylic acid {4-[4-(2-methylphenyl)-piperazin-1-yl]-butyl}-amide] registered a melting point of 187 °C.

In the case of `Cc1ccc(N2CCN(CCCCNC(=O)C3=Cc4ccccc4OC3)CC2)c(C)c1` (as salt: HCl) [Example 10, 2H-Chromene-3-carboxylic acid {4-[4-(2,4-dimethylphenyl)-piperazin-1-yl]-butyl}-amide], the melting point came out at 207 °C.

With `Cc1cccc(N2CCN(CCCCNC(=O)C3=Cc4ccccc4OC3)CC2)c1C` (as salt: HCl) [Example 11, 2H-Chromene-3-carboxylic acid {4-[4-(2,3-dimethylphenyl)piperazin-1-yl]-butyl}-amide], the melting point came to 202 °C.

Compound `N#Cc1ccccc1N1CCN(CCCCNC(=O)C2=Cc3ccccc3OC2)CC1` (as salt: HCl) [Example 12, 2H-Chromene-3-carboxylic acid {4-[4-(2-cyanophenyl)-piperazin-1-yl]-butyl}-amide] yielded a melting point of 194 °C.

The compound `N#Cc1ccc(N2CCN(CCCCNC(=O)C3=Cc4ccccc4OC3)CC2)cc1` (as salt: HCl) [Example 13, 2H-Chromene-3-carboxylic acid {4-[4-(4-cyanophenyl)piperazin 1-yl]-butyl}-amide] displayed a melting point of 212 °C.

On to `O=C(NCCCCN1CCN(c2ccc(C(F)(F)F)cc2)CC1)C1=Cc2ccccc2OC1` (as salt: HCl) [Example 15, 2-H-Chromene-3-carboxylic acid {4-[4-(4-trifluoromethylphenyl)-piperazin-1-yl]-butyl}-amide], for which the melting point is 261.9 °C.

For `O=C(NCCCCN1CCN(c2cccc(C(F)(F)F)c2)CC1)C1=Cc2ccccc2OC1` (as salt: HCl) [Example 16, 2H-Chromene-3-carboxylic acid {4-[4-(3-trifluoromethylphenyl)-piperazin-1-yl]-butyl}-amide], the melting point was 234 °C.

In turn, `O=C(NCCCCN1CCN(c2ccccc2C(F)(F)F)CC1)C1=Cc2ccccc2OC1` (as salt: HCl) [Example 17, 2H-Chromene-3 carboxylic acid {4-[4-(2-trifluoromethylphenyl)-piperazin-1-yl]-butyl}-amide] displayed a melting point of 161 °C.

`O=C(NCCCCN1CCN(c2ccc([N+](=O)[O-])cc2)CC1)C1=Cc2ccccc2OC1` (as salt: HCl) [Example 18, 2H-Chromene 3 carboxylic acid {4-[4-(4-nitrophenyl)-piperazin-1-yl]-butyl}-amide] registered a melting point of 243 °C.

For the compound `COc1ccccc1N1CCN(CCCCNC(=O)C2=Cc3cc(Cl)ccc3OC2)CC1` (as salt: HCl) [Example 29, 6-Chloro-2H-chromene-3-carboxylic acid {4-[4-(2-methoxyphenyl)-piperazin-1-yl]-butyl}-amide], the melting point worked out at 155 °C.

Regarding `O=C(NCCCCN1CCN(c2ccccc2F)CC1)C1=Cc2cc(Cl)ccc2OC1` (as salt: HCl) [Example 30, 6-Chloro-2H-chromene-3-carboxylic acid {4-[4-(2-fluorophenyl)-piperazin-1-yl]-butyl}-amide], the melting point was found to be 214 °C.

`N#Cc1cccc(N2CCN(CCCCNC(=O)C3=Cc4cc(Cl)ccc4OC3)CC2)c1` (as salt: HCl) [Example 31, 6-Chloro-2H-chromene-3-carboxylic acid {4-[4-(3-cyanophenyl)-piperazin-1-yl]-butyl}-amide]: the melting point was 120 °C (dec.).

`O=C(NCCCCN1CCN(c2cccc(Cl)c2Cl)CC1)C1=Cc2ccccc2SC1` (as salt: HCl) [Example 32, 2H-thiochromene-3-carboxylic acid {4-[4-(2,3-dichlorophenyl)piperazin-1-yl]-butyl}-amide] returned a melting point of 215 °C.

In the case of `O=C(NCCCCN1CCN(c2ccccc2F)CC1)C1=Cc2ccccc2SC1` (as salt: HCl) [Example 33, 2H-Thiochromene-3-carboxylic acid {4-[4-(2-fluorophenyl)piperazin-1-yl]-butyl}-amide], the melting point stood at 212 °C.

Take `COc1ccccc1N1CCN(CCCCNC(=O)C2=Cc3ccccc3SC2)CC1` (as salt: HCl) [Example 34, 2H-Thiochromene-3-carboxylic acid {4-[4-(2-methoxyphenyl)piperazin-1-yl]-butyl}-amide]: the melting point stood at 208 °C.

Compound `N#Cc1cccc(N2CCN(CCCCNC(=O)C3=Cc4ccccc4SC3)CC2)c1` (as salt: HCl) [Example 35, 2H-Thiochromene-3-carboxylic acid {4-[4-(3-cyanophenyl)-piperazin-1-yl]-butyl}-amide] registered a melting point of 209 °C.

Compound `O=C(NCCCCN1CCN(c2cccc(O)c2)CC1)C1=Cc2ccccc2SC1` (as salt: HCl) [Example 41, 2H-Thiochromene-3-carboxylic acid {4-[4-(3-hydroxyphenyl)-piperazin-1-yl]-butyl}-amide] displayed a melting point of 182 to 184 °C.

In the case of `CC1(C)Sc2ccccc2C=C1C(=O)NCCCCN1CCN(c2cccc(C#N)c2)CC1` (as salt: HCl) [Example 44, 2,2-Dimethyl-2H thiochromene-3-carboxylic acid {4-[4-(3-cyanophenyl)-piperazin-1-yl]-butyl}-amide], the melting point amounted to 155 °C.

For the compound `O=C(NCCCCN1CCN(c2cccc(CO)c2)CC1)C1=Cc2ccccc2OC1` (as salt: HCl) [Example 46, 2H-chromene-3-carboxylic acid {4-[4-(3-hydroxymethylphenyl)-piperazin-1-yl]-butyl}-amide], the melting point was determined as 194 °C.
